{
  "source": "the supplement of paper PMC11208160",
  "data": [
    {"experiment": "recombinant UMI read abundance after kanamycin selection (control-corrected) (log10(CPM+1)); higher = more efficient recombination; extreme values may be limits of the assay; sequences stand for … in AGTGCAGAGAAAATCGGCCAGTTTTCTCTGCCTGCAGTCCGCATGCCGTGGGACCCCTTGGGTTCTAACCTGTTGCCTAGATTTATGCAGCGGACTGCCTTTCTCCCAAAGTGATAAACCGG…AGGTTGGTTTCACT; site = the 11-nt donor", "method_in_brief": "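Two replicates each of selected and unselected plating were used in this pooled Escherichia coli screen of donor and donor-binding-loop pairs for the IS621 bridge recombinase. Selection was with IPTG (0.07 mM) and kanamycin. Counts of recombinant UMIs, amplified across the donor–target junction, were converted to CPM, averaged, scaled by control-derived factors and reported as log10(CPM+1).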", "values": [
      {"sequence": "GCGACGCCATGGACCGGTTTTCCCGGTAATCCGTATTTGTC (site GCGACGCCTGA)", "recombinant UMI read abundance (log10)": 2.1},
      {"sequence": "GCGAGAACATGGACCGGTTTTCCCGGTAATCCGTATTTGCT (site GCGAAAACTAG)", "recombinant UMI read abundance (log10)": 1.35},
      {"sequence": "GCGAGAACATGGACCGGTTTTCCCGGTAATCCGTATTTGCT (site GCGACAACTAG)", "recombinant UMI read abundance (log10)": 0},
      {"sequence": "GCGAGAACATGGACCGGTTTTCCCGGTAATCCGTATTTGCT (site GCGAGAACTAG)", "recombinant UMI read abundance (log10)": 2.24},
      {"sequence": "GCGAGAACATGGACCGGTTTTCCCGGTAATCCGTATTTGCT (site GCGATAACTAG)", "recombinant UMI read abundance (log10)": 0.492},
      {"sequence": "GCGAGCTCATGGACCGGTTTTCCCGGTAATCCGTATTTGGG (site GCGAGCTCTCC)", "recombinant UMI read abundance (log10)": 0.714},
      {"sequence": "GCGATCCCATGGACCGGTTTTCCCGGTAATCCGTATTTGCG (site GCGATCCCTCG)", "recombinant UMI read abundance (log10)": 1.71},
      {"sequence": "GCGCCCTCATGGACCGGTTTTCCCGGTAATCCGTATTTGGC (site TGAAGTCCTCT)", "recombinant UMI read abundance (log10)": 0.0178},
      {"sequence": "GCGCCGACATGGACCGGTTTTCCCGGTAATCCGTATTTGAC (site GCGCCGACTGT)", "recombinant UMI read abundance (log10)": 2.07},
      {"sequence": "GCGCGAACATGGACCGGTTTTCCCGGTAATCCGTATTTGAC (site GCGCGAACTGT)", "recombinant UMI read abundance (log10)": 1.77},
      {"sequence": "GCGCGCGCATGGACCGGTTTTCCCGGTAATCCGTATTTGGA (site GCGCGCGCTTC)", "recombinant UMI read abundance (log10)": 0.527},
      {"sequence": "GCGCGGGCATGGACCGGTTTTCCCGGTAATCCGTATTTGGC (site GCGCGGGCTGC)", "recombinant UMI read abundance (log10)": 2.54},
      {"sequence": "GCGCTAACATGGACCGGTTTTCCCGGTAATCCGTATTTGAC (site GCGCTAACTGT)", "recombinant UMI read abundance (log10)": 2.61},
      {"sequence": "GCGCTAGCATGGACCGGTTTTCCCGGTAATCCGTATTTGCA (site GCGCTAGCTTG)", "recombinant UMI read abundance (log10)": 2.2},
      {"sequence": "GCGCTGGCATGGACCGGTTTTCCCGGTAATCCGTATTTGCG (site GCGCTGGCTCG)", "recombinant UMI read abundance (log10)": 0.891},
      {"sequence": "GCGGAATCATGGACCGGTTTTCCCGGTAATCCGTATTTGTT (site GCGGAATCTAA)", "recombinant UMI read abundance (log10)": 2.76},
      {"sequence": "GCGGAGCCATGGACCGGTTTTCCCGGTAATCCGTATTTGGG (site GCGAAGCCTCC)", "recombinant UMI read abundance (log10)": 0.0138},
      {"sequence": "GCGGAGCCATGGACCGGTTTTCCCGGTAATCCGTATTTGGG (site GCGCAGCCTCC)", "recombinant UMI read abundance (log10)": 0},
      {"sequence": "GCGGAGCCATGGACCGGTTTTCCCGGTAATCCGTATTTGGG (site GCGGAGCCTCC)", "recombinant UMI read abundance (log10)": 0.0323},
      {"sequence": "GCGGAGCCATGGACCGGTTTTCCCGGTAATCCGTATTTGGG (site GCGTAGCCTCC)", "recombinant UMI read abundance (log10)": 0.0221},
      {"sequence": "GCGGAGGCATGGACCGGTTTTCCCGGTAATCCGTATTTGAG (site GCGGAGGCTCT)", "recombinant UMI read abundance (log10)": 1.89},
      {"sequence": "GCGGCCCCATGGACCGGTTTTCCCGGTAATCCGTATTTGAT (site GCGGCCCCTAT)", "recombinant UMI read abundance (log10)": 0.00951},
      {"sequence": "GCGGCGACATGGACCGGTTTTCCCGGTAATCCGTATTTGGC (site GCGGCGACTGC)", "recombinant UMI read abundance (log10)": 1.99},
      {"sequence": "GCGGGTGCATGGACCGGTTTTCCCGGTAATCCGTATTTGTA (site GCGGGTGCTTA)", "recombinant UMI read abundance (log10)": 2.6},
      {"sequence": "GCGTAATCATGGACCGGTTTTCCCGGTAATCCGTATTTGCC (site GCGTAATCTGG)", "recombinant UMI read abundance (log10)": 2.11},
      {"sequence": "GCGTACGCATGGACCGGTTTTCCCGGTAATCCGTATTTGTT (site GCGTACGCTAA)", "recombinant UMI read abundance (log10)": 1.84},
      {"sequence": "GCGTAGCCATGGACCGGTTTTCCCGGTAATCCGTATTTGGG (site GCGAAGCCTCC)", "recombinant UMI read abundance (log10)": 0.00823},
      {"sequence": "GCGTAGCCATGGACCGGTTTTCCCGGTAATCCGTATTTGGG (site GCGCAGCCTCC)", "recombinant UMI read abundance (log10)": 0.00818},
      {"sequence": "GCGTAGCCATGGACCGGTTTTCCCGGTAATCCGTATTTGGG (site GCGGAGCCTCC)", "recombinant UMI read abundance (log10)": 0.0167},
      {"sequence": "GCGTAGCCATGGACCGGTTTTCCCGGTAATCCGTATTTGGG (site GCGTAGCCTCC)", "recombinant UMI read abundance (log10)": 0.0103},
      {"sequence": "GCGTCACCATGGACCGGTTTTCCCGGTAATCCGTATTTGTT (site GCGTCACCTAA)", "recombinant UMI read abundance (log10)": 0.0187},
      {"sequence": "GCGTTTACATGGACCGGTTTTCCCGGTAATCCGTATTTGCT (site ACGTTTACTAG)", "recombinant UMI read abundance (log10)": 1.3},
      {"sequence": "GCGTTTACATGGACCGGTTTTCCCGGTAATCCGTATTTGCT (site CCGTTTACTAG)", "recombinant UMI read abundance (log10)": 0},
      {"sequence": "GCGTTTACATGGACCGGTTTTCCCGGTAATCCGTATTTGCT (site GCGTTTACTAG)", "recombinant UMI read abundance (log10)": 1.6},
      {"sequence": "GCGTTTACATGGACCGGTTTTCCCGGTAATCCGTATTTGCT (site TCGTTTACTAG)", "recombinant UMI read abundance (log10)": 0.474},
      {"sequence": "GCTAAAACATGGACCGGTTTTCCCGGTAATCCGTATTTGCT (site GCAAAAACTAG)", "recombinant UMI read abundance (log10)": 0},
      {"sequence": "GCTAAAACATGGACCGGTTTTCCCGGTAATCCGTATTTGCT (site GCCAAAACTAG)", "recombinant UMI read abundance (log10)": 0},
      {"sequence": "GCTAAAACATGGACCGGTTTTCCCGGTAATCCGTATTTGCT (site GCGAAAACTAG)", "recombinant UMI read abundance (log10)": 1.28},
      {"sequence": "GCTAAAACATGGACCGGTTTTCCCGGTAATCCGTATTTGCT (site GCTAAAACTAG)", "recombinant UMI read abundance (log10)": 1.01},
      {"sequence": "GCTAACTCATGGACCGGTTTTCCCGGTAATCCGTATTTGGG (site GCTAACTCTCC)", "recombinant UMI read abundance (log10)": 0.0314},
      {"sequence": "GCTAAGCCATGGACCGGTTTTCCCGGTAATCCGTATTTGGG (site GCAAAGCCTCC)", "recombinant UMI read abundance (log10)": 0.00437},
      {"sequence": "GCTAAGCCATGGACCGGTTTTCCCGGTAATCCGTATTTGGG (site GCCAAGCCTCC)", "recombinant UMI read abundance (log10)": 0.0229},
      {"sequence": "GCTAAGCCATGGACCGGTTTTCCCGGTAATCCGTATTTGGG (site GCGAAGCCTCC)", "recombinant UMI read abundance (log10)": 0.00564},
      {"sequence": "GCTAAGCCATGGACCGGTTTTCCCGGTAATCCGTATTTGGG (site GCTAAGCCTCC)", "recombinant UMI read abundance (log10)": 0.0172},
      {"sequence": "GCTAAGTCATGGACCGGTTTTCCCGGTAATCCGTATTTGTG (site GCTAAGTCTCA)", "recombinant UMI read abundance (log10)": 2.06},
      {"sequence": "GCTACAGCATGGACCGGTTTTCCCGGTAATCCGTATTTGCC (site GCTACAGCTGG)", "recombinant UMI read abundance (log10)": 1.42},
      {"sequence": "GCTACAGCATGGACCGGTTTTCCCGGTAATCCGTATTTGCC (site GCTACCGCTGG)", "recombinant UMI read abundance (log10)": 0},
      {"sequence": "GCTACAGCATGGACCGGTTTTCCCGGTAATCCGTATTTGCC (site GCTACGGCTGG)", "recombinant UMI read abundance (log10)": 0.477},
      {"sequence": "GCTACAGCATGGACCGGTTTTCCCGGTAATCCGTATTTGCC (site GCTACTGCTGG)", "recombinant UMI read abundance (log10)": 0},
      {"sequence": "GCTACCCCATGGACCGGTTTTCCCGGTAATCCGTATTTGGA (site GCTACCCCTTC)", "recombinant UMI read abundance (log10)": 0.0342},
      {"sequence": "GCTACCGCATGGACCGGTTTTCCCGGTAATCCGTATTTGCC (site GCTACAGCTGG)", "recombinant UMI read abundance (log10)": 0},
      {"sequence": "GCTACCGCATGGACCGGTTTTCCCGGTAATCCGTATTTGCC (site GCTACCGCTGG)", "recombinant UMI read abundance (log10)": 1.61},
      {"sequence": "GCTACCGCATGGACCGGTTTTCCCGGTAATCCGTATTTGCC (site GCTACGGCTGG)", "recombinant UMI read abundance (log10)": 0},
      {"sequence": "GCTACCGCATGGACCGGTTTTCCCGGTAATCCGTATTTGCC (site GCTACTGCTGG)", "recombinant UMI read abundance (log10)": 0},
      {"sequence": "GCTACGTCATGGACCGGTTTTCCCGGTAATCCGTATTTGTT (site GATACGTCTAA)", "recombinant UMI read abundance (log10)": 0.00849},
      {"sequence": "GCTACGTCATGGACCGGTTTTCCCGGTAATCCGTATTTGTT (site GCTACGTCTAA)", "recombinant UMI read abundance (log10)": 0.808},
      {"sequence": "GCTACGTCATGGACCGGTTTTCCCGGTAATCCGTATTTGTT (site GGTACGTCTAA)", "recombinant UMI read abundance (log10)": 0.0111},
      {"sequence": "GCTACGTCATGGACCGGTTTTCCCGGTAATCCGTATTTGTT (site GTTACGTCTAA)", "recombinant UMI read abundance (log10)": 0.0153},
      {"sequence": "GCTACTGCATGGACCGGTTTTCCCGGTAATCCGTATTTGCT (site GCTACTGCTAG)", "recombinant UMI read abundance (log10)": 1.64},
      {"sequence": "GCTACTGCATGGACCGGTTTTCCCGGTAATCCGTATTTGCT (site GCTACTGCTCG)", "recombinant UMI read abundance (log10)": 0.00284},
      {"sequence": "GCTACTGCATGGACCGGTTTTCCCGGTAATCCGTATTTGCT (site GCTACTGCTGG)", "recombinant UMI read abundance (log10)": 0},
      {"sequence": "GCTACTGCATGGACCGGTTTTCCCGGTAATCCGTATTTGCT (site GCTACTGCTTG)", "recombinant UMI read abundance (log10)": 0},
      {"sequence": "GCTAGTGCATGGACCGGTTTTCCCGGTAATCCGTATTTGGT (site ACTAGTGCTAC)", "recombinant UMI read abundance (log10)": 1.31},
      {"sequence": "GCTAGTGCATGGACCGGTTTTCCCGGTAATCCGTATTTGGT (site CCTAGTGCTAC)", "recombinant UMI read abundance (log10)": 1.65},
      {"sequence": "GCTAGTGCATGGACCGGTTTTCCCGGTAATCCGTATTTGGT (site GCTAGTGCTAC)", "recombinant UMI read abundance (log10)": 1.73},
      {"sequence": "GCTAGTGCATGGACCGGTTTTCCCGGTAATCCGTATTTGGT (site TCTAGTGCTAC)", "recombinant UMI read abundance (log10)": 0.581},
      {"sequence": "GCTATGGCATGGACCGGTTTTCCCGGTAATCCGTATTTGAA (site GCTATGGCTTT)", "recombinant UMI read abundance (log10)": 1.55},
      {"sequence": "GCTCCAACATGGACCGGTTTTCCCGGTAATCCGTATTTGAA (site GCTCCAACTTT)", "recombinant UMI read abundance (log10)": 0.939}
    ]}
  ]
}
